Columns and labels:
Homo sapiens = species: Homo sapiens; experiment: Selectivity for GPR40 over GPR41
[1] = Distribution coefficient, log D at pH 7.4; format: physicochemical; conditions: octanol/water
[2] = biological target: T1, Free fatty acid receptor 2 (Homo sapiens, UniProt O15552); experiment: Activity at GPR43 receptor
T1 sequence (O15552 whole entry): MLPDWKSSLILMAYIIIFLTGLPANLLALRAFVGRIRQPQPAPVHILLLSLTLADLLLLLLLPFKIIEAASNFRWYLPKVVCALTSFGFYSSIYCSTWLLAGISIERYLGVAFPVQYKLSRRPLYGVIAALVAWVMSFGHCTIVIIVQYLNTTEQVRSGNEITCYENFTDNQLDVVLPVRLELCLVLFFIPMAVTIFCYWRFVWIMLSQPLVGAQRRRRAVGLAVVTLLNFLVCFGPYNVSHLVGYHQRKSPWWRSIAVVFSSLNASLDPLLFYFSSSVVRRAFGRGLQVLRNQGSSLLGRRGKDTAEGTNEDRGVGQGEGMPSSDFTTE

[3] = biological target: Hydroxycarboxylic acid receptor 2 (Homo sapiens, UniProt Q8TDS4); experiment: Activity at HM74A receptor
Sequence of Hydroxycarboxylic acid receptor 2 (Q8TDS4 whole entry): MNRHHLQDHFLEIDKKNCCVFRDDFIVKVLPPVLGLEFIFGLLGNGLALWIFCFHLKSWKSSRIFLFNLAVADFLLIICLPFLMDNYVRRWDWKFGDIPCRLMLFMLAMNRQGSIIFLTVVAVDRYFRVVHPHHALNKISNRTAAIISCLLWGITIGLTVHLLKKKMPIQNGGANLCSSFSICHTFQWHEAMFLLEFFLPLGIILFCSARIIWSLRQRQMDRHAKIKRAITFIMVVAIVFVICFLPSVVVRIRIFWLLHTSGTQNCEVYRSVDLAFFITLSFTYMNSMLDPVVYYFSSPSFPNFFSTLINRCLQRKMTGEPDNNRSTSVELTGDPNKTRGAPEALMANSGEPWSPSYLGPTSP

[4] = biological target: T2, Peroxisome proliferator-activated receptor delta (Homo sapiens, UniProt Q03181); experiment: Activity at PPARdelta receptor
T2 sequence (Q03181 whole entry): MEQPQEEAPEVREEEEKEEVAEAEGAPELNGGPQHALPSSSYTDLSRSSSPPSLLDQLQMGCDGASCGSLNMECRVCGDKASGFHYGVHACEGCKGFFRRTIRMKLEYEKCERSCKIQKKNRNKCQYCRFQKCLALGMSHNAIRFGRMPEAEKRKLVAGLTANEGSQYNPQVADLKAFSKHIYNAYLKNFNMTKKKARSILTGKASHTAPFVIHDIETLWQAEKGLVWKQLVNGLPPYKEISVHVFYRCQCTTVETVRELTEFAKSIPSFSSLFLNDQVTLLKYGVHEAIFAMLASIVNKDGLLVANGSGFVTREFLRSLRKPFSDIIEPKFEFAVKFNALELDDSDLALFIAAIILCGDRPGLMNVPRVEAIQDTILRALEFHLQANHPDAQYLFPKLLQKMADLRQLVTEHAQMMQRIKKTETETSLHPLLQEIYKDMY

[5] = biological target: T3, Prostaglandin E2 receptor EP3 subtype (Homo sapiens, UniProt P43115); experiment: Activity at EP3 receptor
T3 sequence (P43115 whole entry): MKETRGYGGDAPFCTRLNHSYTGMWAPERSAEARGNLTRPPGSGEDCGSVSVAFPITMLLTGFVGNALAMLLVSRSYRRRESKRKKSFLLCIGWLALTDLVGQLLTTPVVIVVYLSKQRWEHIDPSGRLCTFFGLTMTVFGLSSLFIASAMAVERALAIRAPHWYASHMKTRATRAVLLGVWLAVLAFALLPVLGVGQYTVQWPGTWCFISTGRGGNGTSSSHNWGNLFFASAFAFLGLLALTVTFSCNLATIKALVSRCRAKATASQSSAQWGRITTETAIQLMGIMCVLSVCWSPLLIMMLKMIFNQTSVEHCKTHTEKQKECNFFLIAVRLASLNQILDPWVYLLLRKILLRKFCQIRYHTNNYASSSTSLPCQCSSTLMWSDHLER

[6] = Clearance in rat; format: ADME, organism-based; conditions: in vivo

## O=C(O)CCc1ccc(NCc2cccc(Oc3ccccc3)c2)cc1 [GW9508]
Homo sapiens
  Fold change: 500
[1]
  logD: 1.95
[2]
  EC50: > 50.1 µM
[3]
  EC50: > 6.31 µM
[4]
  Ki: > 3.16 µM
[5]
  Ki: 0.398 µM
[6]
  clearance: 24.9 mL/min/kg

— ChEMBL document CHEMBL1146379, “Solid phase synthesis and SAR of small molecule agonists for the GPR40 receptor” (Bioorg Med Chem Lett, 2007)
